Patent publication US4269717A, “Boiler additives for oxygen scavenging” (priority 1980, dated 1981)

Experiment: Oxygen scavenging in heated copper coil apparatus (FIG. 1)
Conditions: 135° F.; pH 9.0; initial O2 7.7 ppm; corresponding scavenger:oxygen levels
Procedure: Another series of tests comparing hydrazine and carbohydrazide were carried out with the results presented in graphic form in FIG. 1. These tests were carried out at a temperature of 135° F. and a pH of 9.0 to prevent hydrolysis of the carbohydrazide.
The apparatus used including a reciprocating pump drawing water from a water reservoir and moving it through a heated copper coil at a rate of about 37 ml/minute. The coil was mounted in a cooling column and dissolved oxygen was measured at its outlet. The initial oxygen reading taken at this point for these tests was 7.7 ppm.
After the initial oxygen reading was taken, the scavenger being tested was injected into the feed line before the reciprocating pump.

SMILES: NNC(=O)NN [Carbohydrazide, N, N' diaminourea]
- Oxygen scavenging relative to hydrazine: superior to the hydrazine
